Calls of active or inactive are those of the source. The rule behind the calls is not given here.
What was measured:
Umbelopsis ramanniana = assay: Antimicrobial activity against Mortierella ramanniana; format: functional, organism-based
Escherichia coli [1] = assay: Antimicrobial activity against Escherichia coli at 50 ug/disk; format: functional; settings: read-out: IZ
Escherichia coli [2] = assay: Antimicrobial activity against Escherichia coli by […]; format: functional, organism-based

| SMILES | Activity (Umbelopsis ramanniana) | zone of inhibition at 50 µg/disc (Escherichia coli [1]) [mm] | Activity (Escherichia coli [2]) |
| --- | --- | --- | --- |
| CCCCCCCC(C)CCCCCCCCOC[C@@H](O)COP(=O)(O)O[C@@H]1[C@@H](O)[C@H](O)[C@@H](O)[C@H](O)[C@@H]1O (some centres undefined) | inactive | 12 | – |
| CCCCCCC1C(C)C1CCCCCCCOC[C@@H](O)COP(=O)(O)O[C@@H]1[C@@H](O)[C@H](O)[C@@H](O)[C@H](O)[C@@H]1O (some centres undefined) | inactive | – | Active |

Source: ChEMBL document CHEMBL1155698, “Two new antimicrobial lysoplasmanylinositols from the marine sponge Theonella swinhoei” (2001)
